Data taken from US20250195521A1 (Revolution Medicines, Inc., priority 2020, published 2025).

Assays:
SW1573 [1] = details: cited from earlier work
SW1573 [2] = details: Canon et al. 2019; cited from earlier work
SW1573 cells = details: cited from earlier work
[3] = biological target: KRAS G13C binding to BRAF RBD (Homo sapiens (Human), UniProt P01116+P62937, G13C); test: Ras-Raf disruption/FRET/MOA assay, KRAS G13C; format: biochemical
Text: Disruption of B-Raf Ras-binding Domain (BRAF^RBD) Interaction with K-Ras by Compounds of the Invention (also called a FRET assay or an MOA assay)
Note—The following protocol describes a procedure for monitoring disruption of K-Ras G12C(GMP-PNP) binding to BRAF^RBD by a compound of the invention. This protocol may also be executed substituting other Ras proteins or nucleotides.
The purpose of this biochemical assay was to measure the ability of test compounds to facilitate ternary complex formation between a nucleotide-loaded K-Ras isoform and Cyclophilin A; the resulting ternary complex disrupts binding to a BRAF^RBD construct, inhibiting K-Ras signaling through a RAF effector. Data is reported as IC50 values.
In assay buffer containing 25 mM HEPES pH 7.3, 0.002% Tween20, 0.1% BSA, 100 mM NaCl and 5 mM MgCl2, tagless Cyclophilin A, His6-K-Ras-GMPPNP, and GST-BRAF^RBD were combined in a 384-well assay plate at final concentrations of 25 μM, 12.5 nM and 50 nM, respectively. Compound was present in plate wells as a 10-point 3-fold dilution series starting at a final concentration of 30 μM. After incubation at 25° C. for 3 hours, a mixture of Anti-His Eu—W1024 and anti-GST allophycocyanin was then added to assay sample wells at final concentrations of 10 nM and 50 nM, respectively, and the reaction incubated for an additional 1.5 hours. […] Compounds that facilitate disruption of a K-Ras: RAF complex were identified as those eliciting a decrease in the TR-FRET ratio relative to DMSO control wells.

[4] = biological target: KRAS WT binding to BRAF RBD (Homo sapiens (Human), UniProt P01116+P62937); test: Ras-Raf disruption/FRET/MOA assay, KRAS WT; format: biochemical
How it was run: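 Compounds (top 30 μM, 3-fold, 10 points) promote Cyclophilin A (25 μM) ternary complex with His6-Ras-GMPPNP (12.5 nM), disrupting GST-BRAF RBD (50 nM) binding; 3 h, 25°C, 25 mM HEPES pH 7.3, 100 mM NaCl, 5 mM MgCl2. Detection reagents (Eu anti-His 10 nM, APC anti-GST 50 nM) added for 1.5 h; IC50 reported.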

[5] = tested on: K-Ras G12C (NCI-H358 cells); test: Potency assay: pERK in NCI-H358 cells; format: cell-based, human; details: Homo sapiens; NCI-H358 cells, 4 hours; read-out: pERK EC50 (H358 KRAS G12C)
How it was run: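 Cells plated the day before were exposed for 4 h at 37° C, 5% CO2 to a 10-point, 3-fold DMSO dilution series (10 mM top stock), in duplicate. Phospho-ERK was read by AlphaLISA SureFire Ultra or by In-Cell Western with DRAQ5 DNA stain, and IC50 came from a 4-parameter sigmoidal fit.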

NCI-H358 (K-Ras G12C) = test: CellTiter-Glo cell viability assay, NCI-H358; format: cell-based, human; details: Homo sapiens, NCI-H358, 120 h, 5-day treatment; read-out: H358 Cell Viability assay data (K-Ras G12C, IC50)
How it was run: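 After direct compound addition, plates were incubated to day 5 and equilibrated at room temperature for about 30 minutes before CellTiter-Glo reading. Values derive from luminescence relative to the DMSO mean, fitted with a four-parameter logistic model.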

[6] = biological target: K-Ras G12C(GMP-PNP) binding to BRAF RBD (Homo sapiens (Human), UniProt P01116+P62937, G12C); test: Disruption of BRAF RBD interaction with K-Ras (FRET / MOA assay), K-Ras G12C; format: biochemical; details: read-out: KRAS G12C FRET IC50
How it was run: (§1)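 Cpd 10-pt 3-fold dilution, top 30 μM final; Ras/CypA/BRAF RBD mix 3 h, 25° C. Add anti-His Eu-W1024 10 nM + anti-GST APC 50 nM final, 1.5 h. Readout TR-FRET ratio decrease vs DMSO → IC50.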

[7] = biological target: KRAS G12S binding to BRAF RBD (Homo sapiens (Human), UniProt P01116+P62937, G12S); test: Ras-Raf disruption/FRET/MOA assay, KRAS G12S; format: biochemical
How it was run: as §1

[8] = tested on: PAN02 tumors (SHP2 G503V); test: PAN02 syngeneic tumor model (Example 2); format: in vivo, mouse; details: PAN02, immunocompetent mice; Compound SOS1-(A) 100 mg/kg daily oral
[9] = tested on: PAN02 tumors (SHP2 G503V); test: PAN02 syngeneic tumor model (Example 5); format: in vivo, mouse; details: 100 mg/kg po qd and 250 mg/kg po qd
Protocol: (§2) Mice were implanted with (A) PAN02 tumor cells (1e6 cells/mouse) or (B) LN229 tumor cells in 50% matrigel (10e6 cells/mouse) subcutaneously in the flank. Once tumors reached an average size of ˜200 mm^3 mice were randomized to treatment groups and administration of test article or vehicle (2% HPMC E-50, 0.5% Tween-80 in 50 mM Sodium Citrate Buffer, pH 4.0). Body weight and tumor volume (using digital calipers) were measured twice a week until study endpoints. Compounds were administered by oral gavage daily.

LN229 tumors (SHP2 A72S) = test: LN229 CDX xenograft model (Example 5); format: in vivo, mouse; details: 100 mg/kg po qd
Protocol: as §2

[10] = tested on: PAN02 tumors (PTPN11 G503V); test: PAN02 PTPN11 G503V syngeneic model (Example 12); format: in vivo, mouse; details: PO daily; Compound SOS1-(C) 100 mg/kg for 7 days then 50 mg/kg, abemaciclib 30 mg/kg
Protocol: (§3) The combinatorial effects of Compound SOS1-(C) with Abemaciclib on tumor cell growth in vivo were evaluated in the murine pancreatic ductal adenocarcinoma PAN02 PTPN11G503V syngeneic model using female C57BL/6J mice (6-7 weeks old). Mice were implanted with PAN02 tumor cells in PBS (5 ×10^6cells/mouse) subcutaneously in the flank. Once tumors reached an average size of ˜130 mm3, mice were randomized to treatment groups to start the administration of test articles or control. All test articles were administered by oral gavage daily. Body weight and tumor volume (using calipers) was measured twice weekly until study endpoints.

[11] = tested on: LN229.E76K tumors (PTPN11 E76K); test: LN229.E76K glioblastoma xenograft (Example 8); format: in vivo, mouse; details: PO daily; Compound SOS1-(C) 50 mg/kg, RMC-4550 30 mg/kg, cobimetinib […]
Protocol: 6-7 week athymic nude mice were implanted with LN229.E76K in 50% matirgel (10×10^6 cells/mouse) subcutaneously in the flank. Once tumors reached an average size of 200 mm^3, mice were randomized into treatment groups to start the administration of test articles or control. All treatments were administered daily by oral gavage. Body weight and tumor volume (using calipers) was measured twice weekly until study endpoint.

[12] = tested on: LN229.E76K tumors (PTPN11 E76K); test: LN229.E76K glioblastoma xenograft (Example 11); format: in vivo, mouse; details: PO daily; Compound SOS1-(B) 50 mg/kg, cobimetinib 2.5, and combination
Protocol: The combinatorial effects of Compound SOS1-(B) with cobimetinib on tumor cell growth in vivo were evaluated in a human engineered model of PTPN11-mutant glioblastoma, LN229.E76K xenograft model using female athymic nude mice (6-7 weeks old). Mice were implanted with LN229.E76K tumor cells in 50% Matrigel (10×10^6cells/mouse) subcutaneously in the flank. Once tumors reached an average size of ˜200 mm3, mice were randomized to treatment groups to start the administration of test articles or control. All test articles were administered by oral gavage daily. Body weight and tumor volume (using calipers) was measured twice weekly until study endpoints.

[13] = tested on: NCI-H358 KRASG12C xenograft; test: In vivo NSCLC K-Ras G12C xenograft model; parameters: species or system BALB/c nude mice; details: single agent
Protocol: (§4) Mice were implanted with NCI-H358 tumor cells in 50% Matrigel (5×10^6 cells/mouse) subcutaneously in the flank. At the indicated tumor volume (dotted line, FIG. 2A), mice were randomized to treatment groups to start the administration of test articles or vehicle. […] Body weight and tumor volume (using calipers) was measured twice weekly until study endpoints.
Mice were implanted with NCI-H358 tumor cells in 50% Matrigel (5×10^6 cells/mouse) subcutaneously in the flank. At indicated tumor volume (dotted line, FIG. 3A), mice were randomized to treatment groups to start the administration of test articles or vehicle. […] Cobimetinib was administered by daily oral gavage at 2.5 mg/kg. The combination of Compound B and cobimetinib at their respective single-agent dose and regimen was also tested. Body weight and tumor volume (using calipers) was measured twice weekly until study endpoints.
as §4, with “At” for “At the”, “4A),” for “2A),”

[14] = tested on: PAN02 tumors (PTPN11 G503V); test: PAN02 PTPN11 G503V syngeneic model (Example 10); format: in vivo, mouse; details: PO daily
Protocol: as §3, with “cobimetinib” for “Abemaciclib”, “mm^3,” for “mm3,”

NCI-H358 cells = test: 72-hour proliferation assay using CellTiter-Glo, NCI-H358; format: cell-based, human; details: read-out: EC50, 72-hour proliferation assay
Protocol: The plate was placed in the Incucyte S3 live cell analysis system (37° C., 5% CO2) and confluence was measured by recording images at 6-hour intervals for a maximum of 40 days, or until wells reached maximal confluence. Media and drug were replaced at 3-4 day intervals. Data are plotted as % confluence over the time course of the experiment for each single agent and respective combination (FIG. 5).

Sequence of KRAS G13C binding to BRAF RBD (P01116 other isoform, or with tags, fused parts or gaps G13C): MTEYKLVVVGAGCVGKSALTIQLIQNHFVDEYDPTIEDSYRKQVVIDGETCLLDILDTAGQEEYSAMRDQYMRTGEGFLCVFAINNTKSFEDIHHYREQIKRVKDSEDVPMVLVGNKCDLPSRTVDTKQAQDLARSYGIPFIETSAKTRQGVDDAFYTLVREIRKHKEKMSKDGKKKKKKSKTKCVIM
Sequence of KRAS G13C binding to BRAF RBD (P62937 whole entry, the tested form may be a part): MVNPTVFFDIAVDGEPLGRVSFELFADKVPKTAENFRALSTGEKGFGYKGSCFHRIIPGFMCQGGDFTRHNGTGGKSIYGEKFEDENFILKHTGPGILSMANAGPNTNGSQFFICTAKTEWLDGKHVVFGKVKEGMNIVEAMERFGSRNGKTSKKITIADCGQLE
Sequence of KRAS WT binding to BRAF RBD (P01116 other isoform, or with tags, fused parts or gaps): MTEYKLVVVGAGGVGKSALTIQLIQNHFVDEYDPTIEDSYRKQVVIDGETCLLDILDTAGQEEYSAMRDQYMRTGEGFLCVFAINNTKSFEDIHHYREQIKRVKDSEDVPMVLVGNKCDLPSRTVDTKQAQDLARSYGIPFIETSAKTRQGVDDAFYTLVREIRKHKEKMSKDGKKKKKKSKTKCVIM
Sequence of KRAS WT binding to BRAF RBD (P62937 whole entry): as the sequence (P62937 whole entry, the tested form may be a part) above
Sequence of K-Ras G12C(GMP-PNP) binding to BRAF RBD (P01116 other isoform, or with tags, fused parts or gaps G12C): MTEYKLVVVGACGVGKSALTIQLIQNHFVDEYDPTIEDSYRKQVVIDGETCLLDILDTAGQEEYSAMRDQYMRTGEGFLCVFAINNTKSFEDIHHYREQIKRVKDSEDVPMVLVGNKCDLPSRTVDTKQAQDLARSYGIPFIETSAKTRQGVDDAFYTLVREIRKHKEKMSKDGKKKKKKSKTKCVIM
Sequence of K-Ras G12C(GMP-PNP) binding to BRAF RBD (P62937 whole entry): as the sequence (P62937 whole entry, the tested form may be a part) above
Sequence of KRAS G12S binding to BRAF RBD (P01116 other isoform, or with tags, fused parts or gaps G12S): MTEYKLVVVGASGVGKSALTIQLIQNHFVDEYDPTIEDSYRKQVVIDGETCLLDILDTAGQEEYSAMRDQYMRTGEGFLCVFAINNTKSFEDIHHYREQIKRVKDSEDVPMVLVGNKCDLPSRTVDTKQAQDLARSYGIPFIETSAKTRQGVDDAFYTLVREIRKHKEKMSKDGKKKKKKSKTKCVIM
Sequence of KRAS G12S binding to BRAF RBD (P62937 whole entry): as the sequence (P62937 whole entry, the tested form may be a part) above

Compound: C=CC(=O)N1CCN(c2nc(=O)n(-c3c(C)ccnc3C(C)C)c3nc(-c4c(O)cccc4F)c(F)cc23)[C@@H](C)C1 [AMG510, sotorasib]
- sensitivity of cell line (SW1573 [1]): insensitive
- sensitivity of SW1573 (SW1573 [2]): insensitive
- sensitivity of cell line (SW1573 cells): insensitive

Compound: CCn1c(-c2cccnc2[C@H](C)OC)c2c3cc(ccc31)-c1csc(n1)C[C@H](NC(=O)[C@H](C(C)C)N(C)C(=O)N1CC(C)(OC)C1)C(=O)N1CCC[C@H](N1)C(=O)OCC(C)(C)C2 [Compound A299]
- IC50 [3]: < 0.01 µM
- IC50 [4]: 0.01 to 0.1 µM
- EC50 [5]: < 5 µM
- IC50 (NCI-H358 (K-Ras G12C)): < 0.01 µM
- IC50 [6]: < 0.01 µM
- IC50 [7]: 0.01 to 0.1 µM

Compound: COC1(C(=O)N2Cc3nc(Cl)nc(C[C@H](C)c4cc(N)cc(C(F)(F)F)c4)c3C2)CCOCC1 [Compound SOS1-(A)]
- inhibition of tumor growth in vivo [8]: substantially higher levels of tumor growth inhibition
- inhibition of tumor growth in vivo [9]: near complete inhibition of tumor growth
- inhibition of tumor growth in vivo (LN229 tumors (SHP2 A72S)): near complete inhibition of tumor growth

Compound: CCN1CCN(Cc2ccc(Nc3ncc(F)c(-c4cc(F)c5nc(C)n(C(C)C)c5c4)n3)nc2)CC1 [abemaciclib]
- tumor growth inhibition (TGI) [10]: 52%

Compound: O=C(c1ccc(F)c(F)c1Nc1ccc(I)cc1F)N1CC(O)([C@@H]2CCCCN2)C1 [cobimetinib]
- tumor growth inhibition (TGI) [11]: 41%
- tumor growth inhibition (TGI) [12]: 62%
- tumor growth response ([13]; A 100 mg/kg po daily 28 days, B 50 mg/kg iv twice weekly, cobimetinib […] po daily, C 60 mg/kg iv once weekly): tumor growth inhibition
- mice with tumor regression (of 10) ([13]; regression = greater than 10% reduction of tumor volume, SHP2 inhibitor 30 mg/kg po daily): no tumor regressions
- tumor growth inhibition (TGI) ([14]; Compound SOS1-(C) 100 mg/kg, cobimetinib […]): 38%
- tumor growth inhibition (TGI) ([14]; cobimetinib 5 mg/kg): 49%

Compound: CC(=O)Nc1cccc(-n2c(=O)n(C3CC3)c(=O)c3c(Nc4ccc(I)cc4F)n(C)c(=O)c(C)c32)c1 [trametinib]
- EC50 (NCI-H358 cells): 0.01 µM
